Test results: patent publication US10953026B2, “N-acetyl mannosammine as a therapeutic agent” (THE UNITED STATES OF AMERICA, as represented by the …, priority 2007, dated 2021)
“And” between values parts separate entries of the source, which are not always exact repeats. Equal entries are not always repeated. “Also recorded” adds a separate entry of the source.

Tests used:
Gne^M712T/M712T mice [1] = assay: Rescue by ManNAc feeding: survival of homozygous mutant pups (ManNAc in drinking water of breeding pairs); format: in vivo, mouse
From the text: Gne^M712T/M712T mice. Gne^M712T/M712T knockin mice were generated by targeting the M712T (ATG to ACG) mutation of exon 12 of the murine Gne gene (Gne, Uae1, GenBank NM_015828) (FIG. 2A). The nucleotide sequence for this Gne, Uae1 allele (GenBank NM_015828) without the mutation is shown below for easy reference (SEQ ID NO:3).
The mutant mice were maintained in the C57BL/6J background. Animals were housed in an accredited specific pathogen-free facility in accordance with accepted guidelines. Cages were ventilated in a temperature- and light-controlled environment (22° C., 30%-70% humidity, 12-hour light/12-hour dark cycle). The mice were fed irradiated chow (Prolab 5P75 Isopro 3000; PMI Nutrition International) and sterile water ad libitum. All euthanasia was performed by CO2 inhalation followed by cervical dislocation.
(§1) Breeding pairs of 6-week-old GneM^712T/+ mice were divided into 3 groups. Group I consisted of 9 GneM^712T/+ breeding pairs, who were administered untreated sterilized tap water. Group II consisted of 1 breeding pair of Gne^+/+ mice (wild-type control) and 6 GneM^712T/+ breeding pairs, who were administered water containing 1 mg/ml (˜0.2 g/kg/day) ManNAc (Sigma-Aldrich). […] Group III consisted of 1 Gne^+/+ breeding pair and 7 GneM^712T/+ breeding pairs, who were administered water supplemented with 5 mg/ml (˜1.0 g/kg/day) ManNAc. Water was changed twice weekly. Nursing females continued to be supplied with ManNAc. All mice were weaned from ManNAc at 21 days. Selected whole litters were euthanized at age P2, P6, and P19 for histological, genetic, biochemical, or ultrastructural analysis.
Differences between data groups were evaluated for significance using the 2-tailed Student's t test of unpaired data. For Mendelian distribution analysis, a goodness-of-fit (χ2) test was performed, while for comparisons of survival between treated and untreated mice of all genotypes (Gne^+/+, GneM^712T/+, and GneM^712T/M712T), a 2-tailed Fisher's exact test using a 2×3 table was employed. All data are presented as the mean±SD. A P value less than 0.05 was considered statistically significant.

[2] = Tolerability and growth of ManNAc-treated mice; format: in vivo
Description: as §1

Gne^M712T/M712T mice [3] = assay: Mouse histology (H&E) after ManNAc treatment; format: in vivo
Description: Mouse tissues were collected, formalin fixed (10%) and paraffin embedded. Tissue sections ([…]) were stained with H&E following standard procedures (American Histolabs) or subjected to immunohistochemistry with a variety of primary antibodies. Formalin-fixed tissues were deparaffinized in HistoClear II (National Diagnostics) and […] in a series of ethanol solutions. Antigen retrieval was performed for sections that were to be stained with antibodies against Gne/Mnk (by boiling 5 minutes in citric acid-based solution; Vector Laboratories) and against dystrophin (by boiling in 1 mM EDTA according the manufacturer's protocol; AbCam). The sections were blocked (2% BSA, 10% donkey serum, and 0.1% Triton X-100 in PBS) and incubated with primary antibodies (Gne/Mnk 1:50; laminin 1:25; dystrophin 1:50) overnight at 4° C., followed by incubation with the secondary antibody, Alexa Fluor 488-conjugated donkey anti-rabbit (1:500 in blocking solution) (Invitrogen). The sections were mounted in VECTASHIELD Mounting Medium (Vector Laboratories) and viewed and digitally imaged with a Zeiss Axiovert 200M microscope (Zeiss).
as §1

Gne^M712T/M712T mice [4] = assay: Electron microscopy of kidney glomeruli after ManNAc treatment; format: in vivo, mouse; conditions: age P19, versus untreated Gne^M712T/M712T
Description: Kidney samples were fixed overnight at 4° C. in 2% glutaraldehyde in 0.1 M cacodylate buffer (pH 7.4) and washed with cacodylate buffer. After postfixation with 1% OsO4 for 2 hours and a second wash with 0.1 M cacodylate buffer, the tissues were serially dehydrated in ethanol and embedded in Eponate 12 resin (Ted Pella). Thin sections (˜80 nm) were obtained using a Leica Ultracut UCT Ultramicrotome (Leica Microsystems), placed onto 400 mesh copper grids, and stained with saturated uranyl acetate in 50% methanol followed by lead citrate. The grids were viewed with a Philips 410 electron microscope (FEI Company) at 80 kV, and images were recorded on Kodak SO-163 film (Kodak).
as §1

Gne/Mnk epimerase = assay: Gne-epimerase enzymatic assay in skeletal muscle of ManNAc-treated mice; format: in vivo, mouse
Description: as §1
Mouse kidney and skeletal muscle (quadriceps) tissues were homogenized and subjected to the Gne-epimerase enzymatic assay as previously described (11, 58). This assay was based on incubation with radiolabeled substrate (Uridine diphosphate N-acetyl glucosamine [1-^3H]; American Radiolabeled Chemicals Inc.) and detection of radiolabeled product ([^3H]ManNAc) upon separation of oligosaccharides by high-pH anion-exchange chromatography with pulsed amperometric detection (Dionex).

Gne/Mnk protein = assay: Immunoblots of muscle and kidney extracts with anti-Gne/Mnk antibodies; format: in vivo, mouse
From the text: (§2) A rabbit polyclonal antibody was custom prepared against a Gne/Mnk peptide comprising amino acids 588-607 ([…], SEQ ID NO:8), coupled to keyhole limpet hemocyanine, and affinity purified against the corresponding antigenic peptide (Covance). The following additional primary antibodies were commercially obtained: dystrophin (catalog no. ab15277; Abcam); α-dystroglycan (clone IIH6C4; Upstate Biotechnology); laminin-1 (catalog no. L9393; Sigma-Aldrich); podocalyxin (catalog no. PODX11-A; Alpha Diagnostic International); podocin (catalog no. P0372; Sigma-Aldrich); laminin β1 (catalog no. MAB1928; Millipore); desmin (catalog no. 1466-1; Epitomics); α-SMA (SPM332; GeneTex Inc.); PSA-NCAM (catalog no. MAB5324; Millipore); and β-actin (catalog no. AAN01; Cytoskeleton).
Mouse tissues (age P2) were extracted, homogenized in CelLytic buffer consisting of a mild detergent, bicine buffer, and 150 mM NaCl (Sigma-Aldrich) supplemented with protease inhibitors (Complete Mini; Roche Applied Science). The lysates were sonicated and cleared by centrifugation (1000 g for 10 minutes), and the resulting supernatants were assayed for protein (BCA Protein Assay; Pierce Biotechnology). For the neuraminidase enzymatic treatments (FIG. 6E), protein homogenates ([…]) were incubated for 30 min at 37° C. with 1 mU/mg of neuraminidase (catalog no. N6514; Sigma-Aldrich). Equal amounts of protein ([…]) were electrophoresed on 4%-12% Tris-Glycine gels (Novex; Invitrogen), and electroblotted onto […] Hybond ECL nitrocellulose membranes (GE Healthcare). The membranes were blocked (10% fat-free milk) and incubated with primary antibodies followed by HRP-conjugated secondary antibodies (GE Healthcare). Results were visualized with ECL (ECL Western Blotting Detection Reagents; GE Healthcare) and exposure to CL-XPosure Film (Pierce Biotechnology). Densitometry was performed on the digital images obtained with a Kodak Image Station and software (PerkinElmer). The protein levels were normalized to those of β-actin to correct for differences in protein loading and/or transfer. […]

laminin-1 = assay: Immunoblots of kidney extracts with laminin-1 antibodies; format: in vivo, mouse; conditions: Gne^+/+ and Gne^M712T/M712T littermates
From the text: as §2
(§3) Mouse tissues (age P2) were extracted, homogenized in CelLytic buffer consisting of a mild detergent, bicine buffer, and 150 mM NaCl (Sigma-Aldrich) supplemented with protease inhibitors (Complete Mini; Roche Applied Science). The lysates were sonicated and cleared by centrifugation (1000 g for 10 minutes), and the resulting supernatants were assayed for protein (BCA Protein Assay; Pierce Biotechnology). For the neuraminidase enzymatic treatments (FIG. 6E), protein homogenates (25 mg) were incubated for 30 min at 37° C. with 1 mU/mg of neuraminidase (catalog no. N6514; Sigma-Aldrich). […]

PSA-NCAM = assay: Immunoblots with PSA-NCAM antibodies (sialylation status); format: in vivo, mouse
From the text: as §2
as §3, with “Biotechnology).” for “Biotechnology). For the neuraminidase enzymatic treatments (FIG. 6E), protein homogenates (25 mg) were incubated for 30 min at 37° C. with 1 mU/mg of neuraminidase (catalog no. N6514; Sigma-Aldrich).”
The degree of sialylation of two heavily sialylated marker proteins, PSA-NCAM and podocalyxin was evaluated. […]

podocalyxin = assay: Immunoblots of kidney extracts with podocalyxin antibodies (sialylation status); format: in vivo, mouse; conditions: after ManNAc treatment, P2
From the text: as §2
The lysates were sonicated and cleared by centrifugation (1000 g for 10 minutes), and the resulting supernatants were assayed for protein (BCA Protein Assay; Pierce Biotechnology). For the neuraminidase enzymatic treatments (FIG. 6E), protein homogenates (25 mg) were incubated for 30 min at 37° C. with 1 mU/mg of neuraminidase (catalog no. N6514; Sigma-Aldrich). Equal amounts of protein ([…]) were electrophoresed on 4%-12% Tris-Glycine gels (Novex; Invitrogen), and electroblotted onto […] Hybond ECL nitrocellulose membranes (GE Healthcare). […]

[5] = test system: Gne-deficient mouse embryonic stem cells; conditions: growth medium supplemented with ManNAc; cited from earlier work
[6] = single dose of 0.142 g/kg/day; cited from earlier work
cultured cells = conditions: incubation of cultured cells; cited from earlier work
[7] = ~1.0 g/kg/d in drinking water, mice
[8] = 3.5 months of age, ManNAc until P21

CC(=O)N[C@H]1[C@@H](O)[C@H](O)[C@@H](CO)O[C@H]1O [ManNAc, N-acetyl-D-mannosamine]
pups died at age P1-P3 (number) (Gne^M712T/M712T mice [1]; 1 mg/ml (~0.2 g/kg/d), 7 litters): 13 | surviving homozygous Gne^M712T/M712T mice beyond age P3 (Gne^M712T/M712T mice [1]; 1 mg/ml (~0.2 g/kg/day) in drinking water, 51 offspring): no surviving homozygous | homozygous mutant pups died at age P1-P3 (number) (Gne^M712T/M712T mice [1]; 5 mg/ml (~1 g/kg/d), 13 litters): 14 | Gne^M712T/M712T mice that died between P6 and P12, of the twelve that survived past P3 (Gne^M712T/M712T mice [1]; 5 mg/ml (~1.0 g/kg/day)): nine | Gne^M712T/M712T pups surviving beyond P3 (number) (Gne^M712T/M712T mice [1]; 5 mg/ml (~1.0 g/kg/day) in drinking water, 102 newborns, P=0.01 vs 1 untreated survivor): 12 | Gne^M712T/M712T mice that survived past P21 (Gne^M712T/M712T mice [1]; 5 mg/ml (~1.0 g/kg/day), ManNAc ceased at P21): Two | myopathic features of the surviving Gne^M712T/M712T mouse (Gne^M712T/M712T mice [1]; 6 months old, ManNAc until P21): no obvious myopathic features | survival beyond P3, share of Gne^M712T/M712T pups (Gne^M712T/M712T mice [1]; ManNAc administration): 43% | size of surviving Gne^M712T/M712T mice versus littermates ([2]; ManNAc ~1 g/kg/d): remained smaller than their littermates | weight of surviving Gne^M712T/M712T mice relative to wild-type littermates ([2]; ManNAc ~1.0 g/kg/day): 70%-100% | side effects [2, 7]: no side effects were attributed to the treatment | tolerability [2, 7]: well tolerated | kidney histology of Gne^M712T/M712T survivor (urinary space and tubules) (Gne^M712T/M712T mice [3]; [8]): mild red blood cell infiltrations | skeletal muscle histology of Gne^M712T/M712T survivor (Gne^M712T/M712T mice [3]; [8]): no structural or inflammatory abnormalities | cystic tubular dilatations in cortex and medulla (Gne^M712T/M712T mice [3]; age P6): fewer cystic tubular dilatations | kidney histology compared with untreated Gne^M712T/M712T mice at P2 (Gne^M712T/M712T mice [3]; age P6): significant histological improvement | abnormalities in liver, heart or skeletal muscle tissues (Gne^M712T/M712T mice [3]; age P6, treated Gne^M712T/M712T mice): no abnormalities | red blood cell infiltrates in tubules and Bowman space (Gne^M712T/M712T mice [3]; age P6, versus untreated at P2): reduced red blood cell infiltrates; also recorded: less severe | filtration slits / open slit diaphragms (Gne^M712T/M712T mice [4]): greater number of open slit diaphragms; also recorded: improved | overall integrity of the GBM (Gne^M712T/M712T mice [4]): significantly improved | podocyte foot processes (fusion, flattening, formation) (Gne^M712T/M712T mice [4]): less fusion and flattening; also recorded: improved | Gne activity in Gne^M712T/M712T muscle, of untreated Gne^+/+ mean (Gne/Mnk epimerase; homozygous mutant skeletal muscle, after ManNAc (19.4% untreated), n=7, P=0.05): 31% (±8.4) | Gne activity in Gne^+/+ muscle, of untreated Gne^+/+ mean (Gne/Mnk epimerase; wild-type skeletal muscle, after ManNAc, n=3, P=0.2): 114% (±19.7) | Gne/Mnk protein in Gne^M712T/M712T kidney compared with Gne^+/+ littermates (Gne/Mnk protein; after ManNAc (32.1% untreated), relative to β-actin, P=0.006): 62.2% | Gne/Mnk protein in Gne^M712T/M712T muscle compared with Gne^+/+ littermates (Gne/Mnk protein; after ManNAc (38.5% untreated), relative to β-actin, P=0.12): 68.8% | Gne/Mnk protein expression in Gne^M712T/M712T tissues versus untreated (Gne/Mnk protein; muscle and kidney, ManNAc feeding): increased | laminin-1 intensity / pattern in kidney without or with ManNAc treatment (laminin-1): No difference | PSA-NCAM expression in muscle and kidney upon treatment (PSA-NCAM; P2): no change | increase of PSA-NCAM signal intensity in Gne^M712T/M712T brain versus untreated (PSA-NCAM; brain extracts, P=0.08): 2%-28% and 2% to 28% | sialylation of podocalyxin in Gne^M712T/M712T kidney (podocalyxin): markedly improved; also recorded: changed significantly | sialylation of hyposialylated cells [5]: became resialylated | safety in humans [6]: evidence of the safety

CC(=O)CCC(=O)N[C@@H]1C(O)O[C@H](CO)[C@@H](O)[C@@H]1O (stereo partly shown) [ManLev, N-levulinoylmannosamine]
incorporation of sialic acid analogs (SiaLev or SiaNAz) into cell surface glycoconjugates (cultured cells): incorporation of the downstream sialic acid analogs

[N-]=[N+]=NCC(=O)N[C@@H]1C(O)O[C@H](CO)[C@@H](O)[C@@H]1O (stereo partly shown) [ManNAz, N-azidoacetyl-mannosamine]
incorporation of sialic acid analogs (SiaLev or SiaNAz) into cell surface glycoconjugates (cultured cells): incorporation of the downstream sialic acid analogs
